Reference: patent US9549886B2, “Personal care formulations containing alkyl ketal esters and methods of manufacture” (SEGETIS, INC., priority 2010, dated 2017)
Values joined by “and” are separate entries in the source; they are usually repeats but may differ in a detail not shown here. Identical values can stand only once.

Assays:
[1] = Solubility of active agents in neat alkyl ketal esters (dissolution, storage at room temperature); conditions: for % solids dissolved in Et-LGK with heat, no precipitation / % solids in Et-LGK that did not (completely) dissolve or precipitated at room temperature / % solids dissolved in Et-LGK at room temperature, no precipitation: solvent Et-LGK; for % solids dissolved in Et-LGK with heat, no precipitation: dissolved at 35-80° C.; for % solids dissolved in Et-LGK with heat, no precipitation / % solids dissolved in Et-LGK at room temperature, no precipitation: still soluble after storage at room temperature (24 hours to 5 days) where stated; for % solids in Et-LGK that did not (completely) dissolve or precipitated at room temperature: partially dissolved or precipitated on room temperature storage; for solubility in many alkyl ketal esters: such as ethyl-LGK and ethyl-LPK; for 50/50 mixture with Et-LGK / 50/50 mixture with Et-LPK: room temperature where stated; for % solids dissolved in Bu-LGK at room temperature, no precipitation: still soluble after 24 hours / 1 day at room temperature; for % solids dissolved in Et-LPK at room temperature, no precipitation: still soluble after 24 hours / 1 day at room temperature where stated; for % solids dissolved in Et-LPK with heat, no precipitation: dissolved at 50-80° C. or with heat, still soluble after storage at room temperature (24 hours to 5 days); for % solids dissolved in Bu-LGK with heat, no precipitation: dissolved at 50-80° C., still soluble after 24 hours at room temperature where stated; for % solids in Et-LPK that did not (completely) dissolve or precipitated at room temperature: not completely dissolved or precipitated on room temperature storage
[2] = Three-component miscibility test (mixing in a vial at room temperature and shaking, visual clarity); conditions: for Result (miscibility of ketal with water): 50.0% ketal / 50.0% water, no oxybenzone
Source text: The term “miscible” and its variations (“miscibility”, “compatibility”, and the like) are used herein as a synonym for “soluble”, i.e., a mixture of the materials by themselves form a “true” solution, in which one material is molecularly dispersed in the other, or in which one material is dispersed as droplets which have a longest dimension of less than 200 nm, such that the mixture is optically clear. […] A fully miscible alkyl ketal ester is soluble in another material, such as water, at all proportions from 99:1 to 1:99. A partially miscible alkyl ketal ester is immiscible in another material in proportions from greater than 30 parts of the alkyl ketal ester in 70 parts or less of the other material and miscible in other combinations. A sparingly miscible alkyl ketal ester is immiscible in another material or miscible in another material to the extent of less than 10 parts in 90 parts of the other material. […] Unless stated otherwise, miscibility is assessed at 25° C. […] By “macroscopically uniform,” it is meant that the formulation is uniform when viewed at a length scale of at least 10 micrometers.
In these tests, clear mixtures as observed without magnification from a distance of, e.g., 0.3 meters are considered to be “miscible,” whereas cloudy or phase separated mixtures are considered to be “immiscible.” […]
Three-component mixtures of ethyl-LGK, ethanol, and avobenzone were prepared by mixing the materials at various proportions at room temperature in a vial and shaking. […]
Three-component mixtures of ethyl-LGK, water, and oxybenzone were prepared by mixing the materials at various proportions at room temperature in a vial and shaking. […]
Three-component mixtures of Et-LGK, water, and phenoxyethanol were prepared by mixing the materials at various proportions at room temperature in a vial and shaking.
Three-component mixtures of N,N-diethyl-m-toluamide (DEET), ethyl-LGK, and water were prepared by mixing the materials at various proportions at room temperature in a vial and shaking.

[3] = Miscibility of alkyl ketal esters with water and organic compounds; assay type: physicochemical; conditions: for miscible with water / miscible in water to the extent of / miscible with water to the extent of: 25° C. unless stated otherwise; for dissolves or is miscible with organic compounds to the extent of: organic compounds as listed in the block (alcohols, esters, oils, solvents), 80 parts of the ketal
Protocol: Unless stated otherwise, miscibility is assessed at 25° C.

SMILES: O=C(OOC(=O)c1ccccc1)c1ccccc1 [Benzoyl peroxide]
- % solids dissolved in Et-LGK with heat, no precipitation [1]: 5%
- % solids in Et-LGK that did not (completely) dissolve or precipitated at room temperature ([1]; insoluble): 9.5%
- solubility in many alkyl ketal esters [1]: lower solubilities

SMILES: CCCCCCC(O)CO (stereo not shown) [Caprylyl glycol]
- % solids dissolved in Et-LGK at room temperature, no precipitation [1]: 15% and 20.8%

SMILES: COC1=C(OC)C(=O)C(C/C=C(\C)CC/C=C(\C)CC/C=C(\C)CC/C=C(\C)CC/C=C(\C)CC/C=C(\C)CC/C=C(\C)CC/C=C(\C)CC/C=C(\C)CCC=C(C)C)=C(C)C1=O [Coenzyme Q10, Ubiquinone]
- % solids in Bu-LGK that did not (completely) dissolve ([1]; solvent Bu-LGK, insoluble, dispersion or partially dissolved): 5%
- % solids in Et-LGK that did not (completely) dissolve or precipitated at room temperature ([1]; insoluble): 3.7%

SMILES: CCN(CC)C(=O)c1cccc(C)c1 [DEET, N,N-diethyl-m-toluamide]
- solubility in ethanol and ethyl-LPK [2]: soluble
- clarity of DEET / ethyl-LGK / water mixture ([2]; 26.7 parts of DEET, 60.5 parts of ethyl-LGK, 12.8 parts of water, room temperature): clear mixture
- 50/50 mixture with Et-LGK [1]: miscible
- 50/50 mixture with Et-LPK [1]: miscible

SMILES: COc1cc2c(cc1O)CCC(C)(C)O2 [Dimethylmethoxy Chromanol]
- % solids dissolved in Bu-LGK at room temperature, no precipitation ([1]; solvent Bu-LGK): 2.5%
- % solids dissolved in Et-LGK at room temperature, no precipitation [1]: 2.5%
- % solids dissolved in Et-LPK at room temperature, no precipitation ([1]; solvent Et-LPK): 2.5%

SMILES: O=C(CO)[C@H](O)CO [Erythrulose]
- mixture with Bu-LGK at a ratio of 10/90 ([1]; room temperature): separated into distinct phases
- mixture with Et-LPK at a ratio of 10/90 ([1]; room temperature): separated into distinct phases
- mixture with Et-LGK at a ratio of 10/90 ([1]; room temperature, still soluble after 24 hours): clear uniform solution

SMILES: CCOC(=O)CC1(C)OCC(CO)O1 (stereo not shown) [Et-AcAcGK]
- Result (miscibility of ketal with water) [2]: Miscible
- miscible with water [3]: in all proportions

SMILES: Oc1ccc(O)cc1 [Hydroquinone]
- % solids dissolved in Et-LGK with heat, no precipitation [1]: 5%
- % solids dissolved in Et-LPK with heat, no precipitation ([1]; solvent Et-LPK): 10%

SMILES: COC(=O)CC1(C)OCC(CO)O1 (stereo not shown) [Me-AcAcGK]
- miscible with water [3]: in all proportions

SMILES: Oc1ccc(C=Cc2cc(O)cc(O)c2)cc1 [Resveratrol]
- % solids dissolved in Bu-LGK with heat, no precipitation ([1]; solvent Bu-LGK): 0.5%
- % solids dissolved in Et-LGK at room temperature, no precipitation [1]: 1%
- % solids dissolved in Et-LPK with heat, no precipitation ([1]; solvent Et-LPK): 0.5%
- solubility in many alkyl ketal esters [1]: lower solubilities

SMILES: CC1=C(/C=C/C(C)=C/C=C/C(C)=C/C(=O)O)C(C)(C)CCC1 [Retinoic acid]
- % solids soluble in Et-LPK at 80° C. ([1]; solvent Et-LPK, 80° C.): 1.88%
- solubility in many alkyl ketal esters [1]: lower solubilities

SMILES: COc1cc(CCC(=O)CC(=O)CCc2ccc(O)c(OC)c2)ccc1O [Tetrahydrocurcuminoids, tetrahydrodiferuloylmethane]
- % solids dissolved in Bu-LGK with heat, no precipitation ([1]; solvent Bu-LGK): 5%
- % solids dissolved in Et-LGK at room temperature, no precipitation [1]: 20%
- % solids dissolved in Et-LPK with heat, no precipitation ([1]; solvent Et-LPK): 5%

SMILES: O=C(CCCCc1ccc2c(c1)OCO2)N1CCCCC1 [Tetrahydropiperine]
- % solids dissolved in Bu-LGK at room temperature, no precipitation ([1]; solvent Bu-LGK): 20%
- % solids dissolved in Et-LGK at room temperature, no precipitation [1]: 20%
- % solids dissolved in Et-LPK at room temperature, no precipitation ([1]; solvent Et-LPK): 20%

SMILES: CCOC(=O)CCC1(C)OCCO1 [ethyl-LEK]
- miscible in water to the extent of [3]: 5 parts per 95 parts of water by weight

SMILES: CCOC(=O)CCC1(C)OCC(CO)O1 (stereo not shown) [ethyl-LGK]
- miscible with water [3]: in all proportions
- dissolves or is miscible with organic compounds to the extent of [3]: at least 20 parts of the organic compound in 80 parts

SMILES: CCOC(=O)CCC1(C)OCC(C)O1 (stereo not shown) [ethyl-LPK]
- miscible in water to the extent of [3]: 2.5 parts in 97.5 parts of water
- dissolves or is miscible with organic compounds to the extent of [3]: at least 20 parts of the organic compound in 80 parts

SMILES: COC(=O)c1ccc(O)cc1 [methyl paraben, Methyl paraben]
- level at which by itself immiscible in water ([2]; no ketal): 1 % by weight

SMILES: COC(=O)CCC1(C)OCC(CO)O1 (stereo not shown) [methyl-LGK]
- Result (miscibility of ketal with water) [2]: Miscible
- miscible with water [3]: in all proportions

SMILES: CCCCOC(=O)CCC1(C)OCC(CO)O1 (stereo not shown) [n-butyl-LGK]
- miscible with water to the extent of [3]: 1 part per 99 parts water
- dissolves or is miscible with organic compounds to the extent of [3]: at least 20 parts of the organic compound in 80 parts

SMILES: CCCCOC(=O)CCC1(C)OCC(C)O1 (stereo not shown) [n-butyl-LPK]
- miscible with water to the extent of [3]: about 1 part per 99 parts water
- dissolves or is miscible with organic compounds to the extent of [3]: at least 20 parts of the organic compound in 80 parts

SMILES: CCCOC(=O)CCC1(C)OCC(CO)O1 (stereo not shown) [n-propyl-LGK]
- miscible with water to the extent of [3]: 1 part per 99 parts water

SMILES: CCCCC(CC)COC(=O)C=Cc1ccc(OC)cc1 (stereo not shown) [octyl methoxycinnamate, Ethylhexyl methoxy cinnamate]
- 50/50 mixture with Bu-LGK ([1]; room temperature): soluble
- 50/50 mixture with Et-LGK [1]: soluble
- 50/50 mixture with Et-LPK [1]: soluble

SMILES: COc1ccc(C(=O)c2ccccc2)c(O)c1 [oxybenzone, Oxybenzone]
- maximum solubility in propyl-LGK [2]: 10-18%
- upper limit of solubility in ethanol [2]: 6.5-10%
- concentration achieved in a solution ([2]; Et-AcAc-GK as a cosolvent (with water)): ≤ 29%
- concentration achieved in an ethanolic solution ([2]; Et-LEK as a cosolvent): ≤ 30%
- concentration achieved in a solution ([2]; Methyl-LGK as a cosolvent (with water)): ≤ 10%
- concentration achieved in a solution ([2]; alkyl ketal solvent mixture (Et-LGK and Et-LPK 80/20) as a cosolvent (with water)): ≤ 20%
- concentration achieved in a water solution ([2]; ethyl-LGK as a cosolvent): ≤ 13%
- concentration achieved in an ethanolic solution ([2]; ethyl-LGK as a cosolvent): ≤ 17%
- concentration achieved in an ethanolic solution ([2]; ethyl-LPK as a cosolvent): ≤ 28%
- level at which by itself immiscible in ethanol ([2]; no ketal): 10 % by weight
- level at which by itself immiscible in water ([2]; no ketal): 1 % by weight
- % solids dissolved in LEK with heat, no precipitation ([1]; after 2 weeks at room temperature): 37.5%
- % solids that did not dissolve in ACAc-GK ([1]; room temperature): 31.9%
- % solids that did not dissolve in methyl-LGK ([1]; room temperature): 14.9%
- % solids that did not dissolve in propyl-LGK ([1]; room temperature): 17.8%
- % solids dissolved in Bu-LGK at room temperature, no precipitation ([1]; solvent Bu-LGK): 10%
- % solids dissolved in Et-LEK at room temperature ([1]; solvent Et-LEK): 28.5%
- % solids dissolved in Et-LGK with heat, no precipitation [1]: 20%
- % solids in Et-LGK that did not (completely) dissolve or precipitated at room temperature ([1]; insoluble): 25%
- % solids dissolved in Et-LGK at room temperature, no precipitation [1]: 10% and 18%
- % solids dissolved in Et-LPK with heat, no precipitation ([1]; solvent Et-LPK): 30%
- % solids in Et-LPK that did not (completely) dissolve or precipitated at room temperature ([1]; solvent Et-LPK, insoluble): 40%

SMILES: OCCOc1ccccc1 [phenoxyethanol, Phenoxyethanol]
- amount dissolved / solubilized by Et-LGK/water cosolvent mixtures [2]: ~50 % by weight

SMILES: CCCOC(=O)c1ccc(O)cc1 [propyl paraben, Propyl paraben]
- level of miscibility in Et-LGK by itself [2]: ≤ 24%
- level at which by itself immiscible in water ([2]; no ketal): < 1 % by weight

SMILES: O=C(O)c1ccccc1O [salicylic acid, Salicylic acid]
- % solids dissolved in Bu-LGK with heat, no precipitation ([1]; solvent Bu-LGK): 10%
- % solids in Et-LGK that did not (completely) dissolve or precipitated at room temperature ([1]; insoluble): 20.8%
- % solids dissolved in Et-LGK at room temperature, no precipitation [1]: 15%
- % solids in Et-LPK that did not (completely) dissolve or precipitated at room temperature ([1]; solvent Et-LPK, insoluble): 14.3%
- % solids dissolved in Et-LPK at room temperature, no precipitation ([1]; solvent Et-LPK): 11%
